Values of other authors in patent publication US11771690B2, “Solid particle, preparation method therefor, and pharmaceutical composition containing solid particle” (SHANGHAI WD PHARMACEUTICAL CO., LTD, priority 2018, dated 2023).

solubility in water: insoluble
Structure (SMILES): C[C@]12C=CC(=O)N[C@@H]1CC[C@@H]1[C@@H]2CC[C@]2(C)[C@@H](C(=O)Nc3cc(C(F)(F)F)ccc3C(F)(F)F)CC[C@@H]12 [Dutasteride, (5α,17β)-N-{2,5-bis(trifluoromethyl)phenyl}-3-oxo-4-azaandrost-1-ene-17-carboxamide]
